Measurements taken from patent US7504391B2, “Selective D1/D5 receptor antagonists for the treatment of obesity and CNS disorders” (Schering Corporation, priority 2003, dated 2009).

target: T1, human D1 receptors (Homo sapiens, UniProt P21728); assay: Radioligand binding competition assay at D1 receptor; settings: not given
T1 construct: expressed in transfected cells; host or cells: Ltk- cells (mouse fibroblasts); membrane preparation
Protocol: (§1) Affinity values (Ki) of compounds at human D1 and D2 receptors were ascertained using radioligand binding competition assays. Ltk-cells expressing D1 and D2 (long variant) receptors were lysed in hypotonic buffer for membrane preparation. Membranes were incubated with various concentrations of test compound and 1 nM [3H] of a compound of formula III and 0.2 nM [3H] Methylspiperone for D1 and D2 assays, respectively. Non-specific binding was defined as binding in the presence of 10 micromolar of a compound of formula III for D1 assays and 10 micromolar butaclamol for […]. Following incubation to equilibrium (1 hour at room temperature), bound radioligand was separated from free by rapid filtration. Bound radioactivity on the dried filters was quantified by liquid scintillation counting.
(§2) Selectivity is determined by dividing Ki for D2 receptor by Ki for D1 receptor.

T1 sequence (P21728 whole entry): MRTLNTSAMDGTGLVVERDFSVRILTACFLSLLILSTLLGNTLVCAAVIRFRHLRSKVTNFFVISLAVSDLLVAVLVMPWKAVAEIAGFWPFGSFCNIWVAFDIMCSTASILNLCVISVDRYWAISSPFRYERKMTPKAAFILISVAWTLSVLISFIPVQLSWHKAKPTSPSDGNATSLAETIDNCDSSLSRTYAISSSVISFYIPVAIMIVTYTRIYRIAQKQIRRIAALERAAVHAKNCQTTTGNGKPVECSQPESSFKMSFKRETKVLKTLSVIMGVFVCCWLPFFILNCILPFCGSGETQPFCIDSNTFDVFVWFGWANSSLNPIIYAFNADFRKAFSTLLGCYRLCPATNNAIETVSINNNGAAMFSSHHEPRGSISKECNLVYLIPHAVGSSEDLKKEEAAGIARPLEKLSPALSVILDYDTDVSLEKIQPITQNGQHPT

SMILES	Ki
CN1CCc2cc(Cl)c(O)cc2[C@H]2c3cc(S(=O)(=O)NCc4ccccc4)ccc3CC[C@@H]21 [15l]	10 to 50 nM
CC(=O)Nc1ccc2c(c1)CC[C@H]1[C@H]2c2cc(O)c(Cl)cc2CCN1C [18a4]	< 10 nM
CN1CCc2cc(Cl)c(O)cc2[C@H]2c3ccc(NC(=O)C4CCCC4)cc3CC[C@@H]21 [18a6]	< 5 nM
CN1CCc2cc(Cl)c(O)cc2[C@H]2c3ccc(NC(=O)CC4CC4)cc3CC[C@@H]21 [18a8]	< 10 nM
CN1CCc2cc(Cl)c(O)cc2[C@H]2c3cccc(NC(=O)c4cccc5ccccc45)c3CC[C@@H]21 [18b15]	10 to 50 nM
CN1CCc2cc(Cl)c(O)cc2[C@H]2c3cccc(NS(=O)(=O)c4ccc(F)cc4)c3CC[C@@H]21 [19a6]	< 10 nM
CCS(=O)(=O)Nc1ccc2c(c1)CC[C@H]1[C@H]2c2cc(O)c(Cl)cc2CCN1C [19b5]	< 5 nM
CCCS(=O)(=O)Nc1ccc2c(c1)CC[C@H]1[C@H]2c2cc(O)c(Cl)cc2CCN1C [19b23]	< 5 nM
CN1CCc2cc(Cl)c(O)cc2[C@H]2c3ccc(NS(=O)(=O)c4cccc(C#N)c4)cc3CC[C@@H]21 [19b24]	< 10 nM
CN1CCc2cc(Cl)c(O)cc2[C@H]2c3ccc(NS(=O)(=O)Cc4ccccc4)cc3CC[C@@H]21 [19b31]	< 5 nM
CN1CCc2cc(Cl)c(O)cc2[C@H]2c3ccc(NS(=O)(=O)N(C)C)cc3CC[C@@H]21 [19b32]	< 5 nM
CN1CCc2cc(Cl)c(O)cc2[C@H]2c3cccc(NC(=O)N4CCCC4)c3CC[C@@H]21 [20a7]	< 5 nM
CN(C)C(=O)Nc1cccc2c1CC[C@H]1[C@H]2c2cc(O)c(Cl)cc2CCN1C [20a8]	< 5 nM
CN1CCc2cc(Cl)c(O)cc2[C@H]2c3cccc(NC(=O)Nc4cc(Cl)nc(Cl)c4)c3CC[C@@H]21 [20a33]	10 to 50 nM
CN1CCc2cc(Cl)c(O)cc2[C@H]2c3ccc(NC(=O)Nc4ccccc4Cl)cc3CC[C@@H]21 [20b5]	< 10 nM
CCNC(=O)Nc1ccc2c(c1)CC[C@H]1[C@H]2c2cc(O)c(Cl)cc2CCN1C [20b6]	< 5 nM
CN1CCc2cc(Cl)c(O)cc2[C@H]2c3ccc(NC(=O)Nc4c(Cl)cccc4Cl)cc3CC[C@@H]21 [20b30]	< 5 nM
CN1CCc2cc(Cl)c(O)cc2[C@H]2c3ccc(NCC4CCCC4)cc3CC[C@@H]21 [21a2]	< 5 nM
COc1ccc(OC(=O)Nc2ccc3c(c2)CC[C@H]2[C@H]3c3cc(O)c(Cl)cc3CCN2C)cc1 [24a3]	< 5 nM
COc1ccc(OC(=O)Nc2cccc3c2CC[C@H]2[C@H]3c3cc(O)c(Cl)cc3CCN2C)cc1 [24b2]	< 5 nM

same assay, conditions: class by Ki (D1) and selectivity (Ki D2 / Ki D1); human D1 and D2 (long variant) receptors, Ltk- cell membranes; read-out: D1 binding and D2:D1 Selectivity

SMILES	Ki
CN1CCc2cc(Cl)c(O)cc2[C@H]2c3cccc(CNCc4ccccc4)c3CC[C@@H]21 [5a1]	< 5 nM
CN1CCc2cc(Cl)c(O)cc2[C@H]2c3cccc(CNC(c4ccccc4)c4ccccc4)c3CC[C@@H]21 [5a14]	< 10 nM
CN1CCc2cc(Cl)c(O)cc2[C@H]2c3cccc(CNC4CC4)c3CC[C@@H]21 [5a38]	< 5 nM
CN(C)Cc1cccc2c1CC[C@H]1[C@H]2c2cc(O)c(Cl)cc2CCN1C [5a50]	< 5 nM
CN1CCc2cc(Cl)c(O)cc2[C@H]2c3cc(CNc4cccnc4)ccc3CC[C@@H]21 [5b46]	< 100 nM
C[C@@H](NCc1ccc(C2CN(C)CCc3cc(Cl)c(O)cc32)cc1)C1CCCCC1 (stereo partly drawn) [5c16]	< 5 nM
CC(=O)N(Cc1cccc2c1CC[C@H]1[C@H]2c2cc(O)c(Cl)cc2CCN1C)c1ccccc1 [6a6]	10 to 50 nM
CN1CCc2cc(Cl)c(O)cc2[C@H]2c3cc(CN(Cc4ccccc4)C(=O)c4ccccc4)ccc3CC[C@@H]21 [6b1]	10 to 50 nM
CC(=O)N(Cc1ccc(C2CN(C)CCc3cc(Cl)c(O)cc32)cc1)C1CCC1 (stereo not drawn) [6c26]	< 5 nM
CN1CCc2cc(Cl)c(O)cc2[C@H]2c3cc(CN(Cc4ccccc4)S(C)(=O)=O)ccc3CC[C@@H]21 [7b7]	< 100 nM
CN1CCc2cc(Cl)c(O)cc2C(c2ccc(CN(C3CCC3)S(C)(=O)=O)cc2)C1 (stereo not drawn) [7c16]	< 5 nM
CN1CCc2cc(Cl)c(O)cc2C(c2ccc(CN(C)S(=O)(=O)c3ccccc3)cc2)C1 (stereo not drawn) [7c18]	< 5 nM
CCNC(=O)N(Cc1ccc(F)cc1)Cc1cccc2c1CC[C@H]1[C@H]2c2cc(O)c(Cl)cc2CCN1C [8a3]	10 to 50 nM
CC(C)NC(=O)N(Cc1ccc2c(c1)[C@@H]1c3cc(O)c(Cl)cc3CCN(C)[C@H]1CC2)c1ccccc1 [8b11]	< 100 nM
CCCN(Cc1ccc(C2CN(C)CCc3cc(Cl)c(O)cc32)cc1)C(=O)Nc1ccccc1 (stereo not drawn) [8c33]	< 10 nM
CN1CCc2cc(Cl)c(O)cc2C2c3cccc(C(=O)N4CCN(c5ccccn5)CC4)c3CCC21 (stereo not drawn) [13a2]	< 10 nM
CN1CCN(C(=O)c2cccc3c2CCC2C3c3cc(O)c(Cl)cc3CCN2C)CC1 (stereo not drawn) [13a6]	10 to 50 nM
CN1CCc2cc(Cl)c(O)cc2C2c3cccc(C(=O)NCCc4ccccc4)c3CCC21 (stereo not drawn) [13a7]	< 5 nM
CN(C)C(=O)c1cccc2c1CCC1C2c2cc(O)c(Cl)cc2CCN1C (stereo not drawn) [13a12]	< 10 nM
CN1CCc2cc(Cl)c(O)cc2C2c3cccc(C(=O)NCc4ccccn4)c3CCC21 (stereo not drawn) [13a14]	< 10 nM
CN1CCc2cc(Cl)c(O)cc2C2c3cccc(C(=O)NCc4cccnc4)c3CCC21 (stereo not drawn) [13a16]	< 10 nM

SMILES	Ki
CN1CCc2cc(Cl)c(O)cc2C2c3cccc(C(=O)NCc4ccncc4)c3CCC21 (stereo not drawn) [13a19]	< 10 nM
CN1CCc2cc(Cl)c(O)cc2C2c3cccc(C(=O)NCCc4ccccn4)c3CCC21 (stereo not drawn) [13a20]	< 10 nM
CN1CCc2cc(Cl)c(O)cc2C2c3cccc(C(=O)NCc4ccccc4)c3CCC21 (stereo not drawn) [13a21]	< 10 nM
CNC(=O)c1cccc2c1CCC1C2c2cc(O)c(Cl)cc2CCN1C (stereo not drawn) [13a24]	< 5 nM
CC(NC(=O)c1ccc(C2CN(C)CCc3cc(Cl)c(O)cc32)cc1)c1ccccc1 (stereo not drawn) [13d1]	10 to 50 nM
CN1CCc2cc(Cl)c(O)cc2[C@H]2c3ccc(NC(=O)C4CC4)cc3CC[C@@H]21 [18a1]	< 5 nM
CN1CCc2cc(Cl)c(O)cc2[C@H]2c3ccc(NS(C)(=O)=O)cc3CC[C@@H]21 [19b1]	< 5 nM
CN1CCc2cc(Cl)c(O)cc2[C@H]2c3ccc(NCc4ccccc4)cc3CC[C@@H]21 [21a1]	< 5 nM
CC(=O)N(CC1CCCC1)c1ccc2c(c1)CC[C@H]1[C@H]2c2cc(O)c(Cl)cc2CCN1C [22a2]	10 to 50 nM
CC(=O)N(CCCCc1ccccc1)c1ccc2c(c1)[C@@H]1c3cc(O)c(Cl)cc3CCN(C)[C@H]1CC2 [22b1]	10 to 50 nM
COC(=O)Nc1ccc2c(c1)CC[C@H]1[C@H]2c2cc(O)c(Cl)cc2CCN1C [24a1]	< 5 nM
CCOC(=O)Nc1ccc2c(c1)CC[C@H]1[C@H]2c2cc(O)c(Cl)cc2CCN1C [24a2]	< 5 nM
CN1CCc2cc(Cl)c(O)cc2[C@H]2c3cccc(-c4ncc[nH]4)c3CC[C@@H]21 [25c]	< 5 nM
CN1CCc2cc(Cl)c(O)cc2[C@H]2c3cccc(C#N)c3CC[C@@H]21 [27a]	< 10 nM
Oc1cc2c(cc1Cl)CCN[C@H]1CCc3c(-c4ccncc4)cccc3[C@H]21 [29c]	< 5 nM
CS(=O)(=O)Nc1ccc2c(c1)CC[C@@H]1NCCc3cc(Cl)c(O)cc3[C@@H]21 [30a]	< 10 nM
CC(=O)N(Cc1ccc([C@H]2CNCCc3cc(Cl)c(O)cc32)cc1)C1CCC1 [34a2]	< 10 nM
CN1CCc2cc(Cl)c(O)cc2C(c2ccc(NS(C)(=O)=O)cc2)C1 (stereo not drawn) [35a1]	< 5 nM
CN1CCc2cc(Cl)c(O)cc2C(c2ccc(NS(=O)(=O)c3ccccc3)cc2)C1 (stereo not drawn) [35a2]	< 10 nM
CN1CCc2cc(Cl)c(O)cc2[C@H]2c3ccc(N(C)S(C)(=O)=O)cc3CC[C@@H]21 [compound 23]	< 5 nM

same assay, conditions: membranes of Ltk- cells expressing human D1; 1 nM [3H] compound of formula III; 1 hour at room temperature; read-out: Ki (D1)

SMILES	Ki
CN1CCc2cc(Cl)c(O)cc2[C@H]2c3ccc(NS(C)(=O)=O)cc3CC[C@@H]21 [19b1]	0.45 nM

test system: human D1 receptors; assay: as above; settings: Ki for D2 receptor divided by Ki for D1 receptor
Protocol: as §1, §2

SMILES	D2:D1 ratio (selectivity)
CN1CCc2cc(Cl)c(O)cc2[C@H]2c3ccc(NS(C)(=O)=O)cc3CC[C@@H]21 [19b1]	6642
